The conditions of the series: Liquid; for mass density: 298.15 K, 101.33 kPa, Vibrating tube method; for vapor or sublimation pressure: 308.15 K, Ebulliometric method (Recirculating still).

The record followed here is the NIST ThermoML archive (doi:10.1016/j.fluid.2015.03.023).

Numbers after ± are expanded uncertainties.

Broadly, the mass density is the mass of a sample divided by its volume. In general, vapor or sublimation pressure refers to the equilibrium pressure above the liquid or solid. `ClCBr` [bromochloromethane]: the mass density turned out to be 1921.71 ± 1.1 kg/m3 and the “vapor or sublimation pressure” value was determined as 31.05 ± 0.18 kPa.

With `ClC(Cl)(Cl)Br` [bromotrichloromethane], the mass density stood at 2002.14 ± 1.2 kg/m3 and the “vapor or sublimation pressure” value is recorded as 8.428 ± 0.1 kPa.

`BrCBr` [dibromomethane]: the mass density is on record as 2478.61 ± 1.8 kg/m3 and the “vapor or sublimation pressure” value is 9.932 ± 0.1 kPa.

Regarding `CCCCCCC` [heptane], the mass density is listed as 679.6 ± 0.18 kg/m3 and the “vapor or sublimation pressure” value amounted to 9.916 ± 0.1 kPa.
